Data set [1] concerns Staph. aureus 10649. As to the kind of experiment: Acute mouse protection, in vivo efficacy vs. Staph. aureus 10649 (100-1000 LD50 s). Also on record: species or system Staph. aureus (infected mouse). The note with it: for ED50 / ED50 Oral (milk) / ED50 Subcutaneous: Acute Mouse Protection. The text has this: In Vivo Efficacy vs. Staph. aureus 10649
Model Number Subcutaneous
Thus, the improved oral activity of the compounds of formula I can be attributed to improved gastrointestinal absorption of these compounds.

The conditions of data set [2]: in man; cited from earlier work.
The conditions of data set [3]: in vivo; cited from earlier work.
The conditions of data set [4]: pH 4; cited from earlier work.
Data set [5] relates to Staph. aureus 10649. As to the kind of experiment: Chronic abscess model, in vivo efficacy vs. Staph. aureus 10649. The conditions noted are these: mice pretreated with milk. The arrangement: species or system Staph. aureus (infected mouse). The text has this:
Thus, the improved oral activity of the compounds of formula I can be attributed to improved gastrointestinal absorption of these compounds. […] In this model, sustained blood levels of antibiotic will prevent reinfection by the organism at the abscess site after the last treatment.

A short description of a further data set: Acid stability. The note with it: compared with erythromycin A. The class given is physicochemical.
Data set [6] deals with gastrointestinal tissues (stomach, duodenum, jejunum and ileum). As to the kind of experiment: Gastrointestinal stimulating activity in a dog model, overall. The conditions noted are these: 2 mg/kg intravenously.
Method: Contractions in the gut were recorded with surgically implanted strain gauges.
Data set [7] can be described thus: Serum blood levels after oral administration to beagle dogs (FIG. 1). Type of data set: in vivo, beagle dog. The note with it: 10.0 mg/kg, solution of a buffered salt in water, three beagle dogs, 24 hours. As to the method: The serum half-lives of the new compounds have been measured in both rats and dogs (t0.5 =2-3 hours in rats, 8-12 hours in dogs). […] Similarly, erythromycin A was administered to other dogs at an equal dosage. Serum concentrations of the administered drug were determined hourly over the 24 hours following administration. The results are depicted in FIG. 1.

[8] abbreviates: Staphylococcus aureus, 10649, po, oral, mice pretreated with milk, read-out: ED50 Oral (milk).
Where [9] appears, read: Staphylococcus aureus, 10649, sc, subcutaneous, read-out: ED50 Subcutaneous.
The mark [10] stands for this setting: oral, mice pretreated with milk.

Results on eight compounds are retold here after patent publication US4686207A (Abbott Laboratories, priority 1985, dated 1987).

Counter-ions that a name gives are not always drawn.

One may read the ED50 as the midpoint of the dose-response relation. As for `CC[C@H]1OC(=O)[C@H](C)[C@@H](O[C@H]2C[C@@](C)(OC)[C@@H](OC(C)=O)[C@H](C)O2)[C@H](C)[C@@H](O[C@@H]2O[C@H](C)C[C@H](N(C)C)[C@H]2O)[C@@]2(C)C[C@@H](C)C(O)(O2)[C@H](C)[C@H]2OC(=O)O[C@@]21C` [Compound 4, 4"-acetylerythromycin A 11,12-carbonate-6,9-hemiketal HCl salt], the 50% effective dose (ED50) was 40 mg/kg with Staph. aureus 10649 [1] (setting [8]) and 27 mg/kg in the data set on Staph. aureus 10649 [1] (setting [9]).
On to `CC[C@H]1OC(=O)[C@H](C)[C@@H](O[C@H]2C[C@@](C)(OC)[C@@H](O)[C@H](C)O2)[C@H](C)[C@@H](O[C@@H]2O[C@H](C)C[C@H](N(C)C)[C@H]2O)[C@](C)(O)C[C@@H](C)C(=O)[C@H](C)[C@@H](O)[C@]1(C)O` [Compound 1, erythromycin A], for which the “ED50 Oral (milk)” value with Staph. aureus 10649 [1] (setting [10]) is listed as 52 mg/kg. Further, the “ED50 Subcutaneous” value with Staph. aureus 10649 [1] (subcutaneous) stood at 9 mg/kg. In addition, the median effective dose (ED50) came to 81 mg/kg in the data set with Staph. aureus 10649 [1] (setting [8]); 6 mg/kg in the data set with Staph. aureus 10649 [1] (setting [9]); 200 mg/kg in the data set on Staph. aureus 10649 [5] (Staphylococcus aureus, 10649, oral). In data set [2], the serum half-life is 2 to 3 h. The oral absorption entry in data set [3] was “unreliably absorbed when administered orally”. Moreover, in data set [4], the “antibacterial activity in an environment of high acidity” value is “rapidly loses its antibacterial activity”.
Take `CC[C@H]1OC(=O)[C@H](C)[C@@H](O[C@H]2C[C@@](C)(OC)[C@@H](OC(C)=O)[C@H](C)O2)[C@H](C)[C@@H](O[C@@H]2O[C@H](C)C[C@H](N(C)C)[C@H]2O)[C@](C)(O)C[C@@H](C)C(=O)[C@H](C)[C@@H](O)[C@]1(C)O` [Compound 3, 4"-acetylerythromycin A]: the ED50 in the data set with Staph. aureus 10649 [1] (setting [8]) was determined as 100 mg/kg; with Staph. aureus 10649 [1] (setting [9]), 30 mg/kg.
Consider `CC[C@H]1OC(=O)[C@H](C)[C@@H](O[C@H]2C[C@@](C)(OC)[C@@H](O)[C@H](C)O2)[C@H](C)[C@@H](O[C@@H]2O[C@H](C)C[C@H](N(C)C)[C@H]2O)[C@@]2(C)C[C@@H](C)C(O)(O2)[C@H](C)[C@H]2OC(=O)O[C@@]21C` [Compound 2, erythromycin A 11,12-carbonate-6,9-hemiacetal], for which the median effective dose (ED50) came out at 69 mg/kg in the data set with Staph. aureus 10649 [1] (setting [8]) and 15 mg/kg in the data set on Staph. aureus 10649 [1] (setting [9]). The “subcutaneous versus oral activity” value in the data set on Staph. aureus 10649 [1] (Table I, milk-pretreated mice) is listed as “more active subcutaneously than orally”. Further, the “acid stability relative to erythromycin A” value in “Acid stability” is reported as “significantly more acid-stable than erythromycin A”.
On to “4"-N-CBZ-sarcosyl erythryomycin A 11,12-carbonate-6,9-hemiacetal [Example 6]”, for which the “ED50 Oral (milk)” value with Staph. aureus 10649 [1] (setting [10]) came to 34 mg/kg. For the same compound, in the data set on Staph. aureus 10649 [1] (subcutaneous), the “ED50 Subcutaneous” value was determined as 35 mg/kg.
Consider `CC[C@H]1OC(=O)[C@H](C)[C@@H](O[C@H]2C[C@@](C)(OC)[C@@H](O)[C@H](C)O2)[C@H](C)[C@@H](O[C@@H]2O[C@H](C)C[C@H](N(C)C)[C@H]2O)[C@](C)(O)C[C@@H](C)C(=O)[C@H](C)[C@@H](O)[C@]1(C)O` [erythromycin A lactobionate], for which the “stimulation of the stomach, duodenum, jejunum and ileum” value in data set [6] is reported as “pronounced stimulation”.
Turning to `CC[C@H]1OC(=O)[C@H](C)[C@@H](O[C@H]2C[C@@](C)(OC)[C@@H](OC(C)=O)[C@H](C)O2)[C@H](C)[C@@H](O[C@@H]2O[C@H](C)C[C@H](N(C)C)[C@H]2O)[C@@]2(C)C[C@@H](C)C(O)(O2)[C@H](C)[C@H]2OC(=O)O[C@@]21C` [Compound 7, 4"-acetylerythromycin A 11,12-carbonate-6,9-hemiacetal free base], in data set [7], the “half life relative to erythromycin A” value was “markedly longer half life” and the “peak blood level relative to erythromycin A” value is “higher peak blood level”.
Turning to “4"-N,N-dimethylglycylerythromycin A 11,12-carbonate 6,9-hemiacetal monohydrochloride salt [Example 7]”, the “ED50 Oral (milk)” value with Staph. aureus 10649 [5] is 36 mg/kg.
